Assay results reported in publication PMC12102759 (Protein Science : A Publication of the Protein Society, 2025).

tested on: G3BP1 NFT2; assay type: binding, human; conditions: library DMS-CoV; bait G3BP1 NFT2; prey N; peptide APRITFGGPSDSTGSN; listed as aa = residue placed at this position; column sums to 1

| Sequence | DMS PSSM value, P (position 9) | DMS PSSM value, D (position 11) | DMS PSSM value, T (position 5) | DMS PSSM value, S (position 10) | DMS PSSM value, R (position 3) | DMS PSSM value, G (position 14) | DMS PSSM value, S (position 12) | DMS PSSM value, G (position 7) | DMS PSSM value, S (position 15) | DMS PSSM value, A (position 1) |
| --- | --- | --- | --- | --- | --- | --- | --- | --- | --- | --- |
| APRITFGGPSDSTGSN P9F (APRITFGGFSDSTGSN) | 0.2349 |  |  |  |  |  |  |  |  |  |
| APRITFGGPSDSTGSN D11V (APRITFGGPSVSTGSN) |  | 0.02861 |  |  |  |  |  |  |  |  |
| APRITFGGPSDSTGSN T5Y (APRIYFGGPSDSTGSN) |  |  | 0 |  |  |  |  |  |  |  |
| APRITFGGPSDSTGSN D11W (APRITFGGPSWSTGSN) |  | 0.001161 |  |  |  |  |  |  |  |  |
| APRITFGGPSDSTGSN T5H (APRIHFGGPSDSTGSN) |  |  | 0 |  |  |  |  |  |  |  |
| APRITFGGPSDSTGSN S10A (APRITFGGPADSTGSN) |  |  |  | 0.0189 |  |  |  |  |  |  |
| APRITFGGPSDSTGSN S10I (APRITFGGPIDSTGSN) |  |  |  | 0.2604 |  |  |  |  |  |  |
| APRITFGGPSDSTGSN R3S (APSITFGGPSDSTGSN) |  |  |  |  | 0.004779 |  |  |  |  |  |
| APRITFGGPSDSTGSN G14Y (APRITFGGPSDSTYSN) |  |  |  |  |  | 0.003136 |  |  |  |  |
| APRITFGGPSDSTGSN S12M (APRITFGGPSDMTGSN) |  |  |  |  |  |  | 0.01193 |  |  |  |
| APRITFGGPSDSTGSN P9A (APRITFGGASDSTGSN) | 0.001999 |  |  |  |  |  |  |  |  |  |
| APRITFGGPSDSTGSN T5E (APRIEFGGPSDSTGSN) |  |  | 0.4512 |  |  |  |  |  |  |  |
| APRITFGGPSDSTGSN R3P (APPITFGGPSDSTGSN) |  |  |  |  | 0.2686 |  |  |  |  |  |
| APRITFGGPSDSTGSN T5F (APRIFFGGPSDSTGSN) |  |  | 0 |  |  |  |  |  |  |  |
| APRITFGGPSDSTGSN G7H (APRITFHGPSDSTGSN) |  |  |  |  |  |  |  | 0 |  |  |
| APRITFGGPSDSTGSN S15Q (APRITFGGPSDSTGQN) |  |  |  |  |  |  |  |  | 0.01454 |  |
| APRITFGGPSDSTGSN A1T (TPRITFGGPSDSTGSN) |  |  |  |  |  |  |  |  |  | 0.07786 |
| APRITFGGPSDSTGSN S10F (APRITFGGPFDSTGSN) |  |  |  | 0.001618 |  |  |  |  |  |  |

| Sequence | DMS PSSM value, P (position 9) | DMS PSSM value, D (position 11) | DMS PSSM value, T (position 5) | DMS PSSM value, S (position 10) | DMS PSSM value, R (position 3) | DMS PSSM value, G (position 14) | DMS PSSM value, S (position 12) | DMS PSSM value, G (position 7) | DMS PSSM value, S (position 15) | DMS PSSM value, A (position 1) |
| --- | --- | --- | --- | --- | --- | --- | --- | --- | --- | --- |
| APRITFGGPSDSTGSN S12N (APRITFGGPSDNTGSN) |  |  |  |  |  |  | 0.001178 |  |  |  |
| APRITFGGPSDSTGSN G14I (APRITFGGPSDSTISN) |  |  |  |  |  | 0.0004999 |  |  |  |  |
| APRITFGGPSDSTGSN G14H (APRITFGGPSDSTHSN) |  |  |  |  |  | 0.009284 |  |  |  |  |
| APRITFGGPSDSTGSN G7T (APRITFTGPSDSTGSN) |  |  |  |  |  |  |  | 0 |  |  |
| APRITFGGPSDSTGSN T5R (APRIRFGGPSDSTGSN) |  |  | 0 |  |  |  |  |  |  |  |
| APRITFGGPSDSTGSN P9H (APRITFGGHSDSTGSN) | 0 |  |  |  |  |  |  |  |  |  |
| APRITFGGPSDSTGSN S15I (APRITFGGPSDSTGIN) |  |  |  |  |  |  |  |  | 0.3514 |  |
| APRITFGGPSDSTGSN T5N (APRINFGGPSDSTGSN) |  |  | 0 |  |  |  |  |  |  |  |
| APRITFGGPSDSTGSN G14V (APRITFGGPSDSTVSN) |  |  |  |  |  | 0.009945 |  |  |  |  |
| APRITFGGPSDSTGSN A1M (MPRITFGGPSDSTGSN) |  |  |  |  |  |  |  |  |  | 0.03133 |
| APRITFGGPSDSTGSN D11Y (APRITFGGPSYSTGSN) |  | 0.02603 |  |  |  |  |  |  |  |  |
| APRITFGGPSDSTGSN R3N (APNITFGGPSDSTGSN) |  |  |  |  | 0.0002259 |  |  |  |  |  |
| APRITFGGPSDSTGSN S12F (APRITFGGPSDFTGSN) |  |  |  |  |  |  | 0.0072 |  |  |  |
| APRITFGGPSDSTGSN G7Y (APRITFYGPSDSTGSN) |  |  |  |  |  |  |  | 0 |  |  |
| APRITFGGPSDSTGSN R3M (APMITFGGPSDSTGSN) |  |  |  |  | 0.03758 |  |  |  |  |  |
| APRITFGGPSDSTGSN A1H (HPRITFGGPSDSTGSN) |  |  |  |  |  |  |  |  |  | 0.001405 |
| APRITFGGPSDSTGSN D11I (APRITFGGPSISTGSN) |  | 0.002718 |  |  |  |  |  |  |  |  |
| APRITFGGPSDSTGSN G7L (APRITFLGPSDSTGSN) |  |  |  |  |  |  |  | 0 |  |  |

same assay, conditions: library DMS-CoV; bait G3BP1 NFT2; prey N; peptide APRITFGGPSDSTGSN; listed as aa = residue placed at this position; column sums to 1

| Sequence | DMS PSSM value, T (position 13) | DMS PSSM value, I (position 4) | DMS PSSM value, G (position 8) | DMS PSSM value, F (position 6) |
| --- | --- | --- | --- | --- |
| APRITFGGPSDSTGSN T13K (APRITFGGPSDSKGSN) | 0 |  |  |  |
| APRITFGGPSDSTGSN I4Q (APRQTFGGPSDSTGSN) |  | 0 |  |  |
| APRITFGGPSDSTGSN T13P (APRITFGGPSDSPGSN) | 0.005019 |  |  |  |
| APRITFGGPSDSTGSN G8N (APRITFGNPSDSTGSN) |  |  | 0 |  |
| APRITFGGPSDSTGSN F6H (APRITHGGPSDSTGSN) |  |  |  | 0 |
| APRITFGGPSDSTGSN T13L (APRITFGGPSDSLGSN) | 0.003677 |  |  |  |
| APRITFGGPSDSTGSN I4F (APRFTFGGPSDSTGSN) |  | 0 |  |  |
| APRITFGGPSDSTGSN G8K (APRITFGKPSDSTGSN) |  |  | 0 |  |
